{
  "source": "patent US7868135B2",
  "about": "“Compositions of lipopeptide antibiotic derivatives and methods of use thereof” (priority 2003, dated 2011)",
  "note": "Starred links: 1 amine or outer side, 2 acyl side, 3 side chain; linkers in the order of their positions; H or OH if unused. Positions of bridges follow the written chain, without caps; N, C: chain ends. Non-standard residues stand in square brackets, D forms with d. Residues, ends and D or L forms follow the SMILES beside them. Groups on a side chain read outwards from the residue. ξ: configuration not given here. *: point of attachment. X17 = CSC[C@H](N)C(=O)NC(C)C(N[*:1])C(=O)[*:2]; ξAbu(βξ-NH2) = CC(N[*:3])C(N[*:1])C(=O)[*:2]; Pentadecanoyl = CCCCCCCCCCCCCCC(=O)*; ξAsp(βξ-Me) = CC(C(=O)O)C(N)C(=O)O; Dab = NCC[C@H](N)C(=O)O; ξD = NC(CC(=O)O)C(=O)O; ξPip = O=C(O)C1CCCCN1; ξV = CC(C)C(N)C(=O)O; ξP = O=C(O)C1CCCN1; GABA = NCCCC(=O)O; Sar = CNCC(=O)O",
  "data": [
    {"tested_on": "Staphylococcus aureus (MSSA)", "conditions": "24 h", "outline": "(§1)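 Broth microdilution MIC per NCCLS M7-A6 with doubling serial dilutions, in cation-adjusted Mueller-Hinton broth supplemented with 0.625 mM calcium.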", "units": {"MIC": "µg/mL"}, "values": [
      {"compound": "CCCCCCCCCCCCCCC(=O)NC(CC(=O)O)C(=O)NC1C(=O)N2CCCCC2C(=O)NC(C(C)C(=O)O)C(=O)NC(CC(=O)O)C(=O)NCC(=O)NC(CC(=O)O)C(=O)NCC(=O)NC(C(C)NC(=O)CN(C)C(=O)[C@@H](N)CCCN)C(=O)NC(C(C)C)C(=O)N2CCCC2C(=O)NC1C", "note": "(stereo partly drawn) [Compound 144, C15-Amphomycin-9-Sar-Orn]", "MIC": 4},
      {"compound": "CCCCCCCCCCCCCCC(=O)NC(CC(=O)O)C(=O)NC1C(=O)N2CCCCC2C(=O)NC(C(C)C(=O)O)C(=O)NC(CC(=O)O)C(=O)NCC(=O)NC(CC(=O)O)C(=O)NCC(=O)NC(C(C)NC(=O)CN(C)C(=O)[C@@H](N)CCN)C(=O)NC(C(C)C)C(=O)N2CCCC2C(=O)NC1C", "note": "(stereo partly drawn) [Compound 145, C15-Amphomycin-9-Sar-gDab] (Pentadecanoyl-[ξD][ξAbu(βξ-NH2)][ξPip][ξAsp(βξ-Me)][ξD]G[ξD]G[ξAbu(βξ-NH2)]([Sar-Dab])[ξV][ξP]; lactam 2-C)", "MIC": 2},
      {"compound": "CCCCCCCCCCCCCCC(=O)NC(CC(=O)O)C(=O)NC1C(=O)N2CCCCC2C(=O)NC(C(C)C(=O)O)C(=O)NC(CC(=O)O)C(=O)NCC(=O)NC(CC(=O)O)C(=O)NCC(=O)NC(C(C)NC(=O)CN(C)C(=O)[C@@H](N)CN)C(=O)NC(C(C)C)C(=O)N2CCCC2C(=O)NC1C", "note": "(stereo partly drawn) [Compound 146, C15-Amphomycin-9-Sar-Dap]", "MIC": 2},
      {"compound": "CCCCCCCCCCCCCCC(=O)NC(CC(=O)O)C(=O)NC1C(=O)N2CCCCC2C(=O)NC(C(C)C(=O)O)C(=O)NC(CC(=O)O)C(=O)NCC(=O)NC(CC(=O)O)C(=O)NCC(=O)NC(C(C)NC(=O)CCNC(=O)[C@@H](N)CCCN)C(=O)NC(C(C)C)C(=O)N2CCCC2C(=O)NC1C", "note": "(stereo partly drawn) [Compound 148, C15-Amphomycin-9-(β-Ala)-Orn]", "MIC": "0.5 to 1"},
      {"compound": "CCCCCCCCCCCCCCC(=O)NC(CC(=O)O)C(=O)NC1C(=O)N2CCCCC2C(=O)NC(C(C)C(=O)O)C(=O)NC(CC(=O)O)C(=O)NCC(=O)NC(CC(=O)O)C(=O)NCC(=O)NC(C(C)NC(=O)[C@H]2CCCN2C(=O)[C@H](N)CCCCN)C(=O)NC(C(C)C)C(=O)N2CCCC2C(=O)NC1C", "note": "(stereo partly drawn) [Compound 151, C15-Amphomycin-9-(D-Pro)-(D-Lys)]", "MIC": 16},
      {"compound": "CCCCCCCCCCCCCCC(=O)NC(CC(=O)O)C(=O)NC1C(=O)N2CCCCC2C(=O)NC(C(C)C(=O)O)C(=O)NC(CC(=O)O)C(=O)NCC(=O)NC(CC(=O)O)C(=O)NCC(=O)NC(C(C)NC(=O)CNC(=O)[C@@H](N)CCCN)C(=O)NC(C(C)C)C(=O)N2CCCC2C(=O)NC1C", "note": "(stereo partly drawn) [Compound 153, C15-Amphomycin-9-Gly-Orn]", "MIC": 2},
      {"compound": "CCCCCCCCCCCCCCC(=O)NC(CC(=O)O)C(=O)NC1C(=O)N2CCCCC2C(=O)NC(C(C)C(=O)O)C(=O)NC(CC(=O)O)C(=O)NCC(=O)NC(CC(=O)O)C(=O)NCC(=O)NC(C(C)NC(=O)CNC(=O)[C@@H](N)CCN)C(=O)NC(C(C)C)C(=O)N2CCCC2C(=O)NC1C", "note": "(stereo partly drawn) [Compound 154, C15-Amphomycin-9-Gly-gDab]", "MIC": 4},
      {"compound": "CCCCCCCCCCCCCCC(=O)NC(CC(=O)O)C(=O)NC1C(=O)N2CCCCC2C(=O)NC(C(C)C(=O)O)C(=O)NC(CC(=O)O)C(=O)NCC(=O)NC(CC(=O)O)C(=O)NCC(=O)NC(C(C)NC(=O)CCNC(=O)[C@@H](N)CCCCN)C(=O)NC(C(C)C)C(=O)N2CCCC2C(=O)NC1C", "note": "(stereo partly drawn) [Compound 155, C15-Amphomycin-9-(β-Ala)-Lys]", "MIC": 8},
      {"compound": "CCCCCCCCCCCCCCC(=O)NC(CC(=O)O)C(=O)NC1C(=O)N2CCCCC2C(=O)NC(C(C)C(=O)O)C(=O)NC(CC(=O)O)C(=O)NCC(=O)NC(CC(=O)O)C(=O)NCC(=O)NC(C(C)NC(=O)CCCNC(=O)[C@@H](N)CCCCN)C(=O)NC(C(C)C)C(=O)N2CCCC2C(=O)NC1C", "note": "(stereo partly drawn) [Compound 156, C15-Amphomycin-9-GABA-Lys]", "MIC": 1},
      {"compound": "CCCCCCCCCCCCCCC(=O)NC(CC(=O)O)C(=O)NC1C(=O)N2CCCCC2C(=O)NC(C(C)C(=O)O)C(=O)NC(CC(=O)O)C(=O)NCC(=O)NC(CC(=O)O)C(=O)NCC(=O)NC(C(C)NC(=O)CNC(=O)[C@@H](N)CN)C(=O)NC(C(C)C)C(=O)N2CCCC2C(=O)NC1C", "note": "(stereo partly drawn) [Compound 157, C15-Amphomycin-9-Gly-Dap]", "MIC": "4 to 8"},
      {"compound": "CCCCCCCCCCCCCCC(=O)NC(CC(=O)O)C(=O)NC1C(=O)N2CCCCC2C(=O)NC(C(C)C(=O)O)C(=O)NC(CC(=O)O)C(=O)NCC(=O)NC(CC(=O)O)C(=O)NCC(=O)NC(C(C)NC(=O)CNC(=O)[C@@H](N)CCCCCN)C(=O)NC(C(C)C)C(=O)N2CCCC2C(=O)NC1C", "note": "(stereo partly drawn) [Compound 158, C15-Amphomycin-9-Gly-hLys]", "MIC": "1 to 2"},
      {"compound": "CCCCCCCCCCCCCCC(=O)NC(CC(=O)O)C(=O)NC1C(=O)N2CCCCC2C(=O)NC(C(C)C(=O)O)C(=O)NC(CC(=O)O)C(=O)NCC(=O)NC(CC(=O)O)C(=O)NCC(=O)NC(C(C)NC(=O)CCCNC(=O)[C@@H](N)CCN)C(=O)NC(C(C)C)C(=O)N2CCCC2C(=O)NC1C", "note": "(stereo partly drawn) [Compound 159, C15-Amphomycin-9-GABA-gDab] (Pentadecanoyl-[ξD][ξAbu(βξ-NH2)][ξPip][ξAsp(βξ-Me)][ξD]G[ξD]G[ξAbu(βξ-NH2)]([GABA-Dab])[ξV][ξP]; lactam 2-C)", "MIC": "0.5 to 1"},
      {"compound": "CCCCCCCCCCCCCCC(=O)NC(CC(=O)O)C(=O)NC1C(=O)N2CCCCC2C(=O)NC(C(C)C(=O)O)C(=O)NC(CC(=O)O)C(=O)NCC(=O)NC(CC(=O)O)C(=O)NCC(=O)NC(C(C)NC(=O)C(C)(C)N)C(=O)NC(C(C)C)C(=O)N2CCCC2C(=O)NC1C", "note": "(stereo not drawn) [Compound 161, C15-Amphomycin-9-Aib]", "MIC": 8},
      {"compound": "CCCCCCCCCCCCCCC(=O)NC(CC(=O)O)C(=O)NC1C(=O)N2CCCCC2C(=O)NC(C(C)C(=O)O)C(=O)NC(CC(=O)O)C(=O)NCC(=O)NC(CC(=O)O)C(=O)NCC(=O)NC(C(C)NC(=O)[C@@H](N)CSC)C(=O)NC(C(C)C)C(=O)N2CCCC2C(=O)NC1C", "note": "(stereo partly drawn) [Compound 162, C15-Amphomycin-9-MeCys] (Pentadecanoyl-[ξD][ξAbu(βξ-NH2)][ξPip][ξAsp(βξ-Me)][ξD]G[ξD]G[X17][ξV][ξP]; lactam 2-C)", "MIC": 8}
    ]},
    {"tested_on": "Staphylococcus aureus (MSSA)", "conditions": "S. aureus (MSSA), CAMHB supplemented with 0.625 mM calcium, 24 hours at about 37° C.; a range = compound tested multiple times", "outline": "as §1", "values": [
      {"compound": "CCCCCCCCCCCCC(=O)NC(CC(=O)O)C(=O)NC1C(=O)N2CCCCC2C(=O)NC(C(C)C(=O)O)C(=O)NC(CC(=O)O)C(=O)NCC(=O)NC(CC(=O)O)C(=O)NCC(=O)NC(C(C)NC(=O)[C@@H](N)CN)C(=O)NC(C(C)C)C(=O)N2CCCC2C(=O)NC1C", "note": "(stereo partly drawn) [Compound 136, C13-Amphomycin-9-Dap]", "MIC": "136/4 μg/mL"},
      {"compound": "CCCCCCCCCCCCCC(=O)NC(CC(=O)O)C(=O)NC1C(=O)N2CCCCC2C(=O)NC(C(C)C(=O)O)C(=O)NC(CC(=O)O)C(=O)NCC(=O)NC(CC(=O)O)C(=O)NCC(=O)NC(C(C)NC(=O)[C@@H](N)CN)C(=O)NC(C(C)C)C(=O)N2CCCC2C(=O)NC1C", "note": "(stereo partly drawn) [Compound 140, C14-Amphomycin-9-Dap]", "MIC": "140/32 μg/mL"},
      {"compound": "CCCCCCCCCCCCCCCC(=O)NC(CC(=O)O)C(=O)NC1C(=O)N2CCCCC2C(=O)NC(C(C)C(=O)O)C(=O)NC(CC(=O)O)C(=O)NCC(=O)NC(CC(=O)O)C(=O)NCC(=O)NC(C(C)NC(=O)CNC(=O)[C@@H](N)CCCCN)C(=O)NC(C(C)C)C(=O)N2CCCC2C(=O)NC1C", "note": "(stereo partly drawn) [Compound 141, C16-Amphomycin-9-Gly-Lys]", "MIC": "141/2 μg/mL"},
      {"compound": "CCCCCCCCCCCC(=O)NC(CC(=O)O)C(=O)NC1C(=O)N2CCCCC2C(=O)NC(C(C)C(=O)O)C(=O)NC(CC(=O)O)C(=O)NCC(=O)NC(CC(=O)O)C(=O)NCC(=O)NC(C(C)NC(=O)CNC(=O)[C@@H](N)CCCCN)C(=O)NC(C(C)C)C(=O)N2CCCC2C(=O)NC1C", "note": "(stereo partly drawn) [Compound 143, C12-Amphomycin-9-Gly-Lys]", "MIC": "143/2-4 μg/mL"}
    ]}
  ]
}
